In patent publication US8785630B2, “Insecticidal triazines and pyrimidines” (Vestaron Corporation, priority 2011, dated 2014):

Tested on: beet armyworm (Spodoptera exigua)
Assay: Insecticidal test for beet armyworm, treated diet surface
Assay type: in vivo
Settings: 100 μg/cm^2 on diet surface, first instar larvae, 32 insects per treatment, observations 24, 48 and 96 hours
Description: The compounds identified in Table 8 were prepared according to the previous methods and were tested against beet armyworm and corn earworm as follows:
Insecticidal Test for Beet Armyworm (Spodoptera exigua).
To prepare the test solution, the test compound was Formulated at 3499 ppm in solution as 5 mg compound/1.429 mL of 9 parts acetone: 1 part deionized H2O and vortexed to homogenize. 50 μL of the 3499 ppm (equivalent to 100 μg/cm^2 dose on diet surface area) test solution was pipetted upon the surface of 1 mL of solidified cool Southland Products Incorporated Beet Armyworm Diet (201 Stuart Island Road Lake Village, Ark. 71653) using an Eppendorf Repeater Plus with a 1 mL pipette tip. All pipetting of treatments was done in a Labconco Hood. Thirty minutes were allowed for the acetone to evaporate leaving a dose of 100 μg/cm^2 on the surface of the artificial diet. Two 24 hour old first instar Beet Armyworm (Spodoptera Exigua) larvae were placed in each well of the 128 well Bio-BA 128 Bioassay trays (CD International, Pitman, N.J., 08071, USA) using a #0 fine camel hair paint brush. Bioassay trays were sectioned into treatment groups of 8 with 16 replicates per treatment group (32 insects per treatment). Trays containing the treated diet and larvae were covered with a Bio-CV-16 cover (CD International, Pitman, N.J., 08071, USA) and then placed on a rack under florescent lights at 27° C., 20% relative humidity (RH) in the room, and 16 hr light: 8 hr dark for 96 hours. Observations were made 24, 48 and 96 hours after treatment and infestation. The number of insects dead were counted out of the 32 insects total per treatment and the results are given in a table as a percent mortality at a dose of 100 μg/cm^2. When finished, the tray was moved to the −5° C. freezer and left for 24 hr to insure mortality of the remaining S. exigua. After 24 hours, dispose of entire tray into waste bin.
Keys to the table: Mortality refers to activity against beet army worm (Spodoptera exigua) as defined above at the concentration of 100 μg/cm^2 (A=76-100% mortality, B=51-75% mortality, C=26-50% mortality and D=0-25% mortality).

SMILES	mortality at 100 µg/cm2 [%]
Fc1cccc(F)c1-c1nc(NN=Cc2ccc(OC(F)(F)F)cc2)nc(Nc2ccc(Cl)cc2)n1 [Example 1, N-(4-chlorophenyl)-4-(2,6-difluorophenyl)-6-(2-(4-(trifluoromethoxy)benzylidene)hydrazinyl)-1,3,5-triazin-2-amine]	76 to 100
FC(F)(F)Oc1ccc(C=NNc2nc(Nc3ccc(Cl)cc3)nc(-c3ccccc3)n2)cc1 [Example 2, N-(4-chlorophenyl)-4-phenyl-6-(2-(4-(trifluoromethoxy)benzylidene)hydrazinyl)-1,3,5-triazin-2-amine]	76 to 100
FC(F)(F)Oc1ccc(C=NNc2nc(Nc3ccc(Cl)cc3)nc(-c3ccc(OC(F)(F)F)cc3)n2)cc1 [Example 3, N-(4-chlorophenyl)-4-(2-(4-(trifluoromethoxy)benzylidene)hydrazinyl)-6-(4-(trifluoromethoxy)phenyl)-1,3,5-triazin-2-amine]	26 to 50
Fc1cccc(Cl)c1-c1nc(NN=Cc2ccc(OC(F)(F)F)cc2)nc(Nc2ccc(Cl)cc2)n1 [Example 4]	76 to 100
Fc1ccc(Nc2nc(NN=Cc3ccc(OC(F)(F)F)cc3)nc(-c3c(F)cccc3F)n2)cc1C(F)(F)F [Example 5, 4-(2,6-difluorophenyl)-N-(4-fluoro-3-(trifluoromethyl)phenyl)-6-(2-(4-(trifluoromethoxy)benzylidene)hydrazinyl)-1,3,5-triazin-2-amine]	26 to 50
Fc1cccc(F)c1-c1nc(NN=Cc2ccc(OC(F)(F)F)cc2)nc(Nc2ccc(OC(F)(F)F)cc2)n1 [Example 6, 4-(2,6-difluorophenyl)-6-(2-(4-(trifluoromethoxy)benzylidene)hydrazinyl)-N-(4-(trifluoromethoxy)phenyl)-1,3,5-triazin-2-amine]	26 to 50
Fc1cccc(F)c1-c1nc(NN=Cc2ccc(OC(F)(F)F)cc2)nc(Nc2cccc(C(F)(F)F)c2)n1 [Example 7, 4-(2,6-difluorophenyl)-6-(2-(4-(trifluoromethoxy)benzylidene)hydrazinyl)-N-(3-(trifluoromethyl)phenyl)-1,3,5-triazin-2-amine]	0 to 25
Fc1cccc(F)c1-c1nc(NCc2ccc(Cl)nc2)nc(NN=Cc2ccc(OC(F)(F)F)cc2)n1 [Example 8, N-((6-chloropyridin-3-yl)methyl)-4-(2,6-difluorophenyl)-6-(2-(4-(trifluoromethoxy)benzylidene)hydrazinyl)-1,3,5-triazin-2-amine]	76 to 100
Fc1cccc(F)c1-c1nc(NN=Cc2ccc(OC(F)(F)F)cc2)nc(Nc2ccc(Cl)nc2)n1 [Example 9, N-(6-chloropyridin-3-yl)-4-(2,6-difluorophenyl)-6-(2-(4-(trifluoromethoxy)benzylidene)hydrazinyl)-1,3,5-triazin-2-amine]	76 to 100
Fc1cccc(F)c1-c1nc(NN=Cc2ccc(OC(F)(F)C(F)F)cc2)nc(Nc2ccc(Cl)cc2)n1 [Example 10, N-(4-chlorophenyl)-4-(2,6-difluorophenyl)-6-(2-(4-(1,1,2,2-tetrafluoroethoxy)benzylidene)hydrazinyl)-1,3,5-triazin-2-amine]	76 to 100
Fc1cccc(Cl)c1-c1nc(NN=Cc2ccc(OC(F)(F)C(F)F)cc2)nc(Nc2ccc(Cl)cc2)n1 [Example 11, 4-(2-chloro-6-fluorophenyl)-N-(4-chlorophenyl)-6-(2-(4-(1,1,2,2-tetrafluoroethoxy)benzylidene)hydrazinyl)-1,3,5-triazin-2-amine]	76 to 100
Fc1cccc(Cl)c1-c1nc(NN=Cc2ccc(OC(F)(F)C(F)F)cc2)nc(Nc2ccc(Cl)nc2)n1 [Example 12, 4-(2-chloro-6-fluorophenyl)-N-(6-chloropyridin-3-yl)-6-(2-(4-(1,1,2,2-tetrafluoroethoxy)benzylidene)hydrazinyl)-1,3,5-triazin-2-amine]	76 to 100
Fc1cccc(Cl)c1-c1nc(NN=Cc2ccc(OC(F)(F)F)cc2)nc(Nc2ccc(Cl)nc2)n1 [Example 13, 4-(2-chloro-6-fluorophenyl)-N-(6-chloropyridin-3-yl)-6-(2-(4-(trifluoromethoxy)benzylidene)hydrazinyl)-1,3,5-triazin-2-amine]	76 to 100
FC(F)(F)Oc1ccc(C=NNc2nc(Nc3ccc(Cl)cc3)nc(-c3c(Cl)cccc3Cl)n2)cc1 [Example 14, N-(4-chlorophenyl)-4-(2,6-dichlorophenyl)-6-(2-(4-(trifluoromethoxy)benzylidene)hydrazinyl)-1,3,5-triazin-2-amine]	51 to 75
Fc1cccc(F)c1-c1nc(NN=Cc2ccc(OC(F)(F)C(F)F)cc2)nc(Nc2ccc(Cl)nc2)n1 [Example 15, N-(6-chloropyridin-3-yl)-4-(2,6-difluorophenyl)-6-(2-(4-(1,1,2,2-tetrafluoroethoxy)benzylidene)hydrazinyl)-1,3,5-triazin-2-amine]	76 to 100
FC(F)(F)Oc1ccc(C=NNc2nc(Nc3ccc(Cl)nc3)nc(-c3c(Cl)cccc3Cl)n2)cc1 [Example 16, N-(6-chloropyridin-3-yl)-4-(2,6-dichlorophenyl)-6-(2-(4-(trifluoromethoxy)benzylidene)hydrazinyl)-1,3,5-triazin-2-amine]	76 to 100
CCc1ccc(C=NNc2nc(Nc3ccc(Cl)cc3)nc(-c3c(F)cccc3Cl)n2)cc1 [Example 17, 4-(2-chloro-6-fluorophenyl)-N-(4-chlorophenyl)-6-(2-(4-ethylbenzylidene)hydrazinyl)-1,3,5-triazin-2-amine]	76 to 100
N#Cc1ccc(C=NNc2nc(Nc3ccc(Cl)cc3)nc(-c3c(F)cccc3Cl)n2)cc1 [Example 18]	76 to 100
CCCC=NNc1nc(Nc2ccc(Cl)cc2)nc(-c2c(F)cccc2Cl)n1 [Example 19, 4-(2-butylidenehydrazinyl)-6-(2-chloro-6-fluorophenyl)-N-(4-chlorophenyl)-1,3,5-triazin-2-amine]	76 to 100
Fc1cccc(Cl)c1-c1nc(NN=CCc2ccccc2)nc(Nc2ccc(Cl)cc2)n1 [Example 20, 4-(2-chloro-6-fluorophenyl)-N-(4-chlorophenyl)-6-(2-(2-phenylethylidene)hydrazinyl)-1,3,5-triazin-2-amine]	76 to 100
CC(=NNc1nc(Nc2ccc(Cl)cc2)nc(-c2c(F)cccc2Cl)n1)c1ccc(OC(F)(F)F)cc1 [Example 21, 4-(2-chloro-6-fluorophenyl)-N-(4-chlorophenyl)-6-(2-(1-(4-(trifluoromethoxy)phenyl)ethylidene)hydrazinyl)-1,3,5-triazin-2-amine]	76 to 100
Fc1cccc(Cl)c1-c1nc(NCc2ccc(Cl)nc2)nc(NN=Cc2ccc(OC(F)(F)F)cc2)n1 [Example 22, 4-(2-chloro-6-fluorophenyl)-N-((6-chloropyridin-3-yl)methyl)-6-(2-(4-(trifluoromethoxy)benzylidene)hydrazinyl)-1,3,5-triazin-2-amine]	76 to 100
Cc1ccc(Nc2nc(NN=Cc3ccc(OC(F)(F)F)cc3)nc(-c3c(F)cccc3Cl)n2)cc1 [Example 23, 4-(2-chloro-6-fluorophenyl)-N-(p-tolyl)-6-(2-(4-(trifluoromethoxy)benzylidene)hydrazinyl)-1,3,5-triazin-2-amine]	76 to 100
